In patent publication US20220125763A1, “COMPOSITIONS PROVIDING ENHANCED ANTIBACTERIAL ACTIVITY AGAINST GRAM-POSITIVE BACTERIA AND USE THEREOF” (ANIFERA LIMITED, priority 2019, published 2022):

What was measured:
Assay in all cases: Minimum inhibitory concentration of antibiotic with or without imidazole compound
Assay type in all cases: cell-based
[1] = test system: Coagulase-negative staphylococci CN8
Experimental: (§1) Exemplary embodiments of a 2-(substituted-amino)-imidazole compound in combination with an antibiotic compound were tested to evaluate the effect on minimum inhibitory concentration (MIC).
(§2) In these experiments, a frozen stock of the bacterial strain was streaked onto a sterile brain heart infusion agar plate and incubated at 37° C. for 16-20 hours. After the incubation period, three to five well-isolated bacterial colonies of the same morphologic type were taken from the brain heart infusion agar plate culture and used to inoculate, using a sterile loop, a tube containing 4 mL to 5 mL of cation adjusted Mueller Hinton (MHII) broth. The culture was allowed to grow in a shaking incubator at 220 rpm at 37° C. until the culture reached logarithmic phase, as determined by the measuring of and achieving an optical density (OD) of 0.3 to 0.5 measured at 600 nm. The bacterial concentration of the culture was then adjusted with the addition of MHII broth to achieve the equivalent of 1×10^6 colony-forming unit (CFU)/mL using the approximation that 1×10^9 CFU/mL is equal to OD600 nm=1. Cells were then treated with the designated amount of test compound (shown in Table 1) or a solvent control (dimethyl sulfoxide) for 30 minutes at ambient conditions. Cells were then transferred into 96-well round bottom plates and exposed to 2-fold serial dilutions of the denoted antibiotic.

[2] = test system: Coagulase-negative staphylococci CN74
Experimental: as §1, §2

Staphylococcus aureus B8 = conditions: S. aureus B8
Experimental: as §1, §2

[3] = test system: Coagulase-negative staphylococci CN58
Experimental: as §1, §2

[4] = test system: Staphylococcus aureus Xen30; conditions: S. aureus Xen30
Experimental: as §1, §2

[5] = test system: Staphylococcus aureus B12; conditions: S. aureus B12
Experimental: as §1, §2

In the case of `CC(C)Nc1ncc(-c2cccc(NC(=O)Nc3ccc(Cl)c(Cl)c3)c2)[nH]1` [Compound 1, 1-(3,4-dichlorophenyl)-3-(3-(2-(Isopropylamino)-1H-Imidazol-5-yl)phenyl)urea], the “Minimum Inhibitory Concentration of penicillin” value (“Minimum Inhibitory Concentration” below) ([1]; +Compound 1 at 2 μM) is reported as 0.125 µg/mL, the “Minimum Inhibitory Concentration” value ([2]; +Compound 1 at 2 μM) is reported as 0.5 µg/mL and the “Minimum Inhibitory Concentration” value (Staphylococcus aureus B8; +Compound 1 at 2 μM) is reported as 2 µg/mL. The “Minimum Inhibitory Concentration” value ([3]; +Compound 1 at 2 μM) was 0.125 µg/mL, the “Minimum Inhibitory Concentration” value ([4]; +Compound 1 at 4 μM) was 8 µg/mL and the “Minimum Inhibitory Concentration” value ([5]; +Compound 1 at 2 μM) was 1 µg/mL.
`Cc1onc(-c2ccccc2)c1C(=O)N[C@@H]1C(=O)N2[C@@H]1SC(C)(C)[C@@H]2C(=O)O` [Oxacillin] showed an MIC ([4]; Staphylococcus aureus, No imidazole compound, read-out: Minimum Inhibitory Concentration of Oxacillin) of 128 µg/mL.
For penicillin, the “Minimum Inhibitory Concentration” value ([1]; No imidazole compound) was 2 µg/mL, the “Minimum Inhibitory Concentration” value ([2]; No imidazole compound) was 8 µg/mL and the “Minimum Inhibitory Concentration” value (Staphylococcus aureus B8; No imidazole compound) was 64 µg/mL. The “Minimum Inhibitory Concentration” value ([3]; No imidazole compound) was 32 µg/mL, the “Minimum Inhibitory Concentration” value ([4]; No imidazole compound) was 128 µg/mL and the “Minimum Inhibitory Concentration” value ([5]; No imidazole compound) was 16 µg/mL.
